Results from publication PMC7766327, “Inhibition of Pneumolysin Cytotoxicity by Hydrolysable Tannins” (Antibiotics, 2020).
Read-outs that look alike come from different tables or passages of the source.

Assays:
pneumolysin (Ply) [1] = molecular target: T1, pneumolysin (Ply) (Streptococcus pneumoniae serotype 2, UniProt Q04IN8); assay: cell-based; format: cell-based
T1 construct: made in house; host or cells: E. coli BL21(DE3)
Method: Native human erythrocytes were taken into EDTA tubes. The erythrocytes were washed three times with PBS (0.15 M NaCl, 2.7 mM KCl, 8.1 mM Na2HPO4 and 1.5 mM KH2PO4) by centrifugation at 700× g for 10 min. The purified erythrocytes were stored at +4 °C. Erythrocytes (1% v/v) in PBS were mixed with 1 nM Ply and dilution series of polyphenol inhibitors in 96-well microtiter plates. The reaction was incubated for 30 min at 37 °C. The plates were centrifuged, and the supernatant was pipetted into flat-bottomed microtiter plates to measure the absorbance at 570 nm (VICTOR X4, PerkinElmer, Turku, Finland) of the released hemoglobin from lysed erythrocytes. The absorbances of triplicate measurements are presented as a function of inhibitor concentration. The IC50 values were calculated with Origin data analysis software (2016, OriginLab Corporation, Northampton, MA, USA).

pneumolysin (Ply) [2] = molecular target: T1, pneumolysin (Ply); assay: Precipitation assay of pneumolysin-tannin interaction; format: binding; conditions: for Minimum Precipitating Concentration: 10 μM Ply, Na-acetate buffer pH 5.0, 25 °C, 30 min, absorbance 414 nm; for Precipitation Relative Power: fold compared to vescalagin (=1); for Fold higher precipitating concentration compared to hemolysis IC50: minimum precipitating concentration vs hemolysis IC50
Method: The precipitation assay with tannins was done as described previously with bovine serum albumin [22]. First, 10 μM of Ply and dilution series of polyphenols (5–1000 µM) were incubated in a Na-acetate buffer (200 mM NaCl and 50 mM CH3COONa; pH 5.0) at 25 °C for 30 min with shaking. The reactions were carried out in Multiskan Ascent plate reader (Labsystems, Vantaa, Finland) and the precipitation was measured at 414 nm. The minimum concentration precipitating Ply was calculated with Origin data analysis software (2016, OriginLab Corporation, Northampton, MA, USA).

[3] = read-out: IC50 (screening with hemolysis assays), estimated from the inhibition curves, two-fold dilutions of tannins
[4] = IC50 (screening with hemolysis assays), estimated from the inhibition curves, two-fold dilutions of tannins
[5] = Hemolysis Inhibition IC50, 1 nM Ply, 1% human erythrocytes, 30 min 37 °C, logistic fit
[6] = classification by IC50 from two-fold dilutions

T1 sequence (Q04IN8 whole entry): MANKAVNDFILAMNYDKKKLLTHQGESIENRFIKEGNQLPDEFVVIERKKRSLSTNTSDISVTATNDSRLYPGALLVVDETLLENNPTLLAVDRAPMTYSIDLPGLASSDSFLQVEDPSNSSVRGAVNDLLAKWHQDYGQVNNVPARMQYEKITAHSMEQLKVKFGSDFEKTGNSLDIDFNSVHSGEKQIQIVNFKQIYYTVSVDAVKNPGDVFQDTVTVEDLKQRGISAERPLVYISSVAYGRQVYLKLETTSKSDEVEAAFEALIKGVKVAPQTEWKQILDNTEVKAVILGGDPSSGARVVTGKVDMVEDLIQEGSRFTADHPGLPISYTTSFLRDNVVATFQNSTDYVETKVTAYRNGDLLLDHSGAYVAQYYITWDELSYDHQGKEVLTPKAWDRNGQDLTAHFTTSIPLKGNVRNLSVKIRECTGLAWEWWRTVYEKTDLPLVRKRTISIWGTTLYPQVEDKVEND

SMILES: O=C(OC1OC2COC(=O)c3cc(O)c(O)c(O)c3-c3c(cc(O)c(O)c3O)C(=O)OC2C2OC(=O)c3cc(O)c(O)c(O)c3-c3c(cc(O)c(O)c3O)C(=O)OC12)c1cc(O)c(O)c(Oc2c(O)c(O)c(O)c3c2C(=O)OC2C(COC(=O)c4cc(O)c(O)c(O)c4-3)OC(OC(=O)c3cc(O)c(O)c(Oc4c(O)c(O)c(O)c5c4C(=O)OC4C(COC(=O)c6cc(O)c(O)c(O)c6-5)OC(OC(=O)c5cc(O)c(O)c(O)c5)C5OC(=O)c6cc(O)c(O)c(O)c6-c6c(cc(O)c(O)c6O)C(=O)OC45)c3)C3OC(=O)c4cc(O)c(O)c(O)c4-c4c(cc(O)c(O)c4O)C(=O)OC23)c1 (stereo not shown) [Lambertianin C]
- IC50 (pneumolysin (Ply) [1]; [3]): 20 nM

SMILES: O=C(OC1OC2COC(=O)c3cc(O)c(O)c(O)c3-c3c(cc(O)c(O)c3O)C(=O)OC2C2OC(=O)c3cc(O)c(O)c(O)c3-c3c(cc(O)c(O)c3O)C(=O)OC12)c1cc(O)c(O)c(Oc2c(C(=O)OC3OC4COC(=O)c5cc(O)c(O)c(O)c5-c5c(cc(O)c(O)c5O)C(=O)OC4C4OC(=O)c5cc(O)c(O)c(O)c5-c5c(cc(O)c(O)c5O)C(=O)OC34)cc(O)c(O)c2O)c1 (stereo not shown) [Agrimoniin]
- IC50 (pneumolysin (Ply) [1]; [3]): 30 nM

SMILES: O=C1OC[C@H]2OC(O)[C@@H]3OC(=O)c4cc(O)c(O)c(O)c4-c4c(cc(O)c(O)c4O)C(=O)O[C@H]3[C@@H]2OC(=O)c2cc(O)c(O)c(O)c2-c2c1cc(O)c(O)c2O (stereo partly shown) [Pedunculagin]
- IC50 (pneumolysin (Ply) [1]; [4]): > 100 nM

SMILES: O=C1OCC2OC(=O)c3cc(O)c(O)c(O)c3-c3c(O)c(O)c(O)c4c3C(=O)OC(C2OC(=O)c2cc(O)c(O)c(O)c2-c2c1cc(O)c(O)c2O)C1OC(=O)c2c-4c(O)c(O)c(O)c2C1O (stereo not shown) [Vescalagin]
- IC50 (pneumolysin (Ply) [1]; [5]): 240 ± 5.3 nM
- IC50 (pneumolysin (Ply) [1]; [4]): > 100 nM
- Inhibitor class in hemolysis inhibition assay (pneumolysin (Ply) [1]; [6]): weak (negative or weak inhibitors (IC50 ≥ 100 nM))
- Hemolysis Inhibition Inhibitory Power (pneumolysin (Ply) [1]; relative to IC50 of vescalagin (=1)): 1
- Minimum Precipitating Concentration (pneumolysin (Ply) [2]): 820 µM
- Precipitation Relative Power (pneumolysin (Ply) [2]): 1
- Fold higher precipitating concentration compared to hemolysis IC50 (pneumolysin (Ply) [2]): 3400 fold

SMILES: O=C1OC[C@H]2OC(=O)c3cc(O)c(O)c(O)c3-c3c(O)c(O)c(O)c4c3C(=O)O[C@H]([C@H]3OC(=O)c5c-4c(O)c(O)c(O)c5[C@H]3O)[C@@H]2OC(=O)c2cc(O)c(O)c(O)c2-c2c1cc(O)c(O)c2O [Castalagin]
- IC50 (pneumolysin (Ply) [1]; [4]): 80 nM

SMILES: O=C(OC1COC(=O)c2cc(O)c(O)c(O)c2-c2c(cc(O)c(O)c2O)C(=O)OC1C1OC(=O)c2cc(O)c(O)c(O)c2-c2c(O)c(O)c(O)c3c2C(=O)OC1C3O)c1cc(O)c(O)c(O)c1 (stereo not shown) [Stachyurin]
- IC50 (pneumolysin (Ply) [1]; [4]): > 100 nM

SMILES: O=C(O[C@@H]1O[C@@H]2COC(=O)c3cc(O)c(O)c(O)c3-c3c(cc(O)c(O)c3O)C(=O)O[C@H]2[C@H](OC(=O)c2cc(O)c(O)c(O)c2)[C@H]1OC(=O)c1cc(O)c(O)c(O)c1)c1cc(O)c(O)c(Oc2c(C(=O)O[C@H]3O[C@@H]4COC(=O)c5cc(O)c(O)c(O)c5-c5c(cc(O)c(O)c5O)C(=O)O[C@H]4[C@@H]4OC(=O)c5cc(O)c(O)c(O)c5-c5c(cc(O)c(O)c5O)C(=O)O[C@@H]34)cc(O)c(O)c2O)c1 [Gemin A]
- Hemolysis Inhibition Inhibitory Power (pneumolysin (Ply) [1]): 5.9
- IC50 (pneumolysin (Ply) [1]; [5]): 41 ± 1 nM
- IC50 (pneumolysin (Ply) [1]; [4]): 20 nM
- Inhibitor class in hemolysis inhibition assay (pneumolysin (Ply) [1]; [6]): potent (potent inhibitors (IC50 10–30 nM))
- Minimum Precipitating Concentration (pneumolysin (Ply) [2]): 6.2 µM
- Precipitation Relative Power (pneumolysin (Ply) [2]): 130
- Fold higher precipitating concentration compared to hemolysis IC50 (pneumolysin (Ply) [2]): 150 fold

SMILES: O=C1O[C@H]2[C@@H]3OC(=O)c4cc(O)c(O)c(O)c4-c4c(cc(O)c(O)c4O)C(=O)OC[C@H]2O[C@@H](OC(=O)c2cc(O)c(O)c(O)c2)[C@@H]3OC(=O)c2cc(O)c(O)c3c2[C@@H]2C1=CC(=O)[C@](O)(O3)C2(O)O [Geraniin]
- IC50 (pneumolysin (Ply) [1]; [4]): 100 nM

SMILES: O=C(O[C@@H]1O[C@@H]2COC(=O)c3cc(O)c(O)c(O)c3-c3c(cc(O)c(O)c3O)C(=O)O[C@H]2[C@@H]2OC(=O)c3cc(O)c(O)c(O)c3-c3c(cc(O)c(O)c3O)C(=O)O[C@@H]12)c1cc(O)c(O)c(O)c1 [Casuarictin]
- IC50 (pneumolysin (Ply) [1]; [4]): 40 nM

SMILES: O=C(O[C@@H]1COC(=O)c2cc(O)c(O)c(O)c2-c2c(cc(O)c(O)c2O)C(=O)O[C@H]1[C@@H]1OC(=O)c2cc(O)c(O)c(O)c2-c2c(O)c(O)c(O)c3c2C(=O)O[C@H]1[C@@H]3O)c1cc(O)c(O)c(O)c1 [Casuarinin]
- IC50 (pneumolysin (Ply) [1]; [4]): 90 nM

SMILES: O=C(OC1O[C@@H]2COC(=O)c3cc(O)c(O)c(O)c3-c3c(cc(O)c(O)c3O)C(=O)O[C@H]2[C@H](OC(=O)c2cc(O)c(O)c(O)c2)[C@H]1OC(=O)c1cc(O)c(O)c(O)c1)c1cc(O)c(O)c(O)c1 (stereo partly shown) [Tellimagrandin II]
- Inhibitor class in hemolysis inhibition assay (pneumolysin (Ply) [1]): potent (key: negative or weak inhibitors (IC50 ≥ 100 nM); moderate inhibitors (IC50 40–90 nM); potent inhibitors (IC50 10–30 nM))
- IC50 (pneumolysin (Ply) [1]; [4]): 10 nM

SMILES: O=C(O[C@H]1[C@@H]2OC(=O)c3cc(O)c(O)c(O)c3-c3c4cc(c(O)c3O)Oc3c(cc(O)c(O)c3O)C(=O)O[C@H]3C(O)O[C@@H]5COC(=O)c6cc(O)c(O)c(O)c6-c6c(cc(c(O)c6O)Oc6c(cc(O)c(O)c6O)C(=O)O[C@H]1C(O)O[C@@H]2COC4=O)C(=O)O[C@H]5[C@@H]3OC(=O)c1cc(O)c(O)c(O)c1)c1cc(O)c(O)c(O)c1 (stereo partly shown) [Oenothein B]
- Hemolysis Inhibition Inhibitory Power (pneumolysin (Ply) [1]): 4.4
- IC50 (pneumolysin (Ply) [1]; [5]): 55 ± 2.1 nM
- IC50 (pneumolysin (Ply) [1]; [4]): 60 nM
- Inhibitor class in hemolysis inhibition assay (pneumolysin (Ply) [1]; [6]): moderate (moderate inhibitors (IC50 40–90 nM))
- Minimum Precipitating Concentration (pneumolysin (Ply) [2]): 510 µM
- Precipitation Relative Power (pneumolysin (Ply) [2]): 1.6
- Fold higher precipitating concentration compared to hemolysis IC50 (pneumolysin (Ply) [2]): 9300 fold

SMILES: O=C(OC1OC2COC(=O)c3cc(O)c(O)c(O)c3-c3c(cc(O)c(O)c3O)C(=O)OC2C2OC(=O)c3cc(O)c(O)c(O)c3-c3c(cc(O)c(O)c3O)C(=O)OC12)c1cc(O)c(O)c(Oc2c(O)c(O)c(O)c3c2C(=O)OC2C(COC(=O)c4cc(O)c(O)c(O)c4-3)OC(OC(=O)c3cc(O)c(O)c(O)c3)C3OC(=O)c4cc(O)c(O)c(O)c4-c4c(cc(O)c(O)c4O)C(=O)OC23)c1 (stereo not shown) [Sanguiin H-6]
- IC50 (pneumolysin (Ply) [1]; [3]): 20 nM

SMILES: O=C(O[C@@H]1O[C@@H]2COC(=O)c3cc(O)c(O)c(O)c3-c3c(cc(O)c(O)c3O)C(=O)O[C@H]2[C@H](O)[C@H]1OC(=O)c1cc(O)c(O)c(O)c1)c1cc(O)c(O)c(O)c1 [1,2,-di-O-galloyl-4,6-HHDP-β-D-glucose]
- IC50 (pneumolysin (Ply) [1]; [4]): 70 nM

SMILES: O=C1O[C@H]2[C@@H]3OC(=O)c4cc(O)c(O)c(O)c4-c4c(O)c(O)c5oc(=O)c6c(c(O)c(O)c7oc(=O)c4c5c76)-c4c(cc(O)c(O)c4O)C(=O)OC[C@H]3OC(O)[C@@H]2OC(=O)c2cc(O)c(O)c(O)c2-c2c1cc(O)c(O)c2O (mixture of isomers) [Punicalagin]
- IC50 (pneumolysin (Ply) [1]; [4]): 60 nM

SMILES: O=C(O[C@@H]1O[C@H](CO)[C@@H](O)[C@H](O)[C@H]1O)c1cc(O)c(O)c(O)c1 [1-O-galloyl-β-D-glucose]
- IC50 (pneumolysin (Ply) [1]; [4]): > 100 nM

SMILES: O=C(O[C@H]1[C@@H]2OC(=O)c3cc(O)c(O)c(O)c3-c3c(cc(O)c(O)c3O)C(=O)OC[C@H]2OC(O)[C@@H]1OC(=O)c1cc(O)c(O)c(O)c1)c1cc(O)c(O)c(O)c1 (stereo partly shown) [Tellimagrandin I]
- IC50 (pneumolysin (Ply) [1]; [4]): 60 nM

SMILES: O=C(O)C[C@@H]1C(=O)O[C@H]2[C@@H]3OC(=O)c4cc(O)c(O)c(O)c4-c4c(cc(O)c(O)c4O)C(=O)OC[C@H]2O[C@@H](OC(=O)c2cc(O)c(O)c(O)c2)[C@@H]3OC(=O)c2cc(O)c(O)c3c2[C@H]1[C@H](O)C(=O)O3 [Chebulagic acid]
- IC50 (pneumolysin (Ply) [1]; [4]): > 100 nM
